Converted amounts (≈) assume the structure as drawn. Where a SMILES comes first, the peptide text is derived from it. Where no end group is shown, it is not given here. [ ]: non-standard residue; d: D form.
How the values were obtained:
human erythrocytes = assay: Hemolytic activity; format: cell-based; conditions: 37 °C, Fig. 2; for hemolytic activity under the concentration of 100 μM: 8% human erythrocytes in PBS pH 7.4, 60 min, hemoglobin release at 490 nm; for hemolytic activity compared to polybia-MPI: 8% human erythrocytes in PBS pH 7.4, peptide up to 256 µM, 60 min, 490 nm
Description: Fresh human blood was collected in heparinized-tube, diluted in cold PBS (pH 7.4) and centrifuged at 800g for 10 min to remove the serum and buffy coat. The erythrocytes were washed twice time and re-suspended in the same buffer to a final erythrocyte concentration of 8% for the hemolysis assay (Sharma and Sharma [2001]). The RBC (red blood cell) suspension of 100 µl was transferred into a 96 well microtiter plate. Peptides were dissolved in PBS (pH 7.4) of different concentrations from 2 to 256 µM were incubated with 8% erythrocytes suspension for 60 min at 37 °C. Subsequently, the plate was centrifuged at 1200×g for 10 min. Then, aliquots of 100 µl supernatant were retransferred to an another 96-well plates and measured to monitor the release of hemoglobin by microplate reader (Bio-Rad 680) at 490 nm, which indicated RBC membrane damage. 100 µl RBC (red blood cell) suspension with 0.2% Triton-X 100 or PBS was used as positive and negative control, respectively. Hemolysis rate was determined as below: Hemolysisrate(%)=(A-A2)/(A1-A2)×100% where A is the absorbance of indicator mixtures with different factors, A1 and A2 are the positive control, and the negative control, respectively (Kim et al. [2011]).
Fig. 2 The hemolytic activity of polybia-MPI and synthetic D-MPI and D-lys-MPI against human erythrocytes were determined. Fresh human blood was collected and centrifuged to remove the serum and buffy coat, and re-suspended to a final erythrocyte concentration of 8% erythrocytes suspension. Then, peptides of different concentrations from 2 to 256 μM were incubated with erythrocytes suspension for 60 min. Subsequently, the erythrocytes suspension was centrifuged and measured to monitor the release of hemoglobin at 490 nm

[1] = tested on: Candida krusei (ATCC 6258); assay: MIC, broth microdilution; format: cell-based; conditions: Sabouraud dextrose broth, 2 × 10^4 cfu/ml, peptide 1 to 256 µM, 18 h, 35 °C, visible turbidity, triplicate
Description: (§1) The minimal inhibitory concentration (MIC) of the peptides was measured in triplicate by the standard broth microdilution method (Peterson et al. [1980]; Wang et al. [2012]). In brief, bacteria/fungi were cultured overnight to mid-logarithmic-phase in Mueller–Hinton broth (MHB)/Sabouraud dextrose broth. The cultures were diluted to a final concentration of 2 × 10^4 cfu/ml in fresh Mueller–Hinton broth (MHB)/Sabouraud dextrose broth. Each well of 96-well propylene microtitre plates was filled with 100 µl cell suspension and 100 μl peptide solution of twofold diluted serially. And the final concentrations of peptide mixtures ranged from 1 to 256 µM. Controls were done without peptides. After 18 h of incubation at 37 °C (bacteria)/35 °C (fungi), the minimal inhibitory concentration (MIC) of the peptides was evaluated by visible turbidity in each well.

[2] = tested on: E. coli (ML-35) (ATCC 43827); assay: MIC, broth microdilution; format: cell-based; conditions: Mueller–Hinton broth, 2 × 10^4 cfu/ml, peptide 1 to 256 µM, 18 h, 37 °C, visible turbidity, triplicate
Description: as §1

(ATCC 700603) = conditions: ATCC 700603, 18 h
trypsin [3] = assay: Bactericidal activity after trypsin treatment, colony plates (Fig. 4); conditions: peptide with trypsin 4 h 37 °C, enzyme heat inactivated at 60 °C, E. coli co-incubated 3 h, plated 24 h
Description: To test the stability of polybia-MPI and D-MPI, first 1 mg/l of the peptides were incubated with trypsin and chymotrypsin for 4 h for degradation. After the enzyme was heat inactivated at 60 °C for 15 min, E. coli was added and co-incubated for 3 h. Then, the treated bacteria were coated to plate and incubated at 37 °C for 24 h.
Peptides were incubated with the same volume of PBS (Left) or trypsin (Right) at 37 °C for 4 h. The enzyme was heat inactivated at 60 °C for 20 min, and E. coli suspension was added and co-incubated for 3 h. Then, the mixtures were plated onto MH broth ager and incubated for 18–24 h. Pictures of each plate were photographed

chymotrypsin [4] = assay: Viability assay: antimicrobial activity against E. coli after chymotrypsin treatment (Fig. 5); format: in vitro ADME; conditions: 37 °C, then E. coli at MIC, OD 600 nm
chymotrypsin [5] = assay: Radial diffusion assay after chymotrypsin pre-incubation; format: in vitro ADME; conditions: pre-incubation 4 h 37 °C, plates 18–24 h 37 °C, Fig. 6
Description: (§2) The enzymatic stability of Polybia-MPI and its analogues was evaluated by a modification of the sensitive radial diffusion assay. The bacteria were cultured until the optical density at 600 nm (OD600) of an aliquot reached 0.5. One milliliter of the bacteria suspension was added to 100 ml of previously autoclaved, warm Mueller–Hinton agar (MHA)/Sabouraud dextrose agar. The medium were poured into layer of a 5 mm deep. Wells were performed with a sterile plastic bore of a 3-mm-diameter gel punch. Following the addition of 20 µl pre-incubated mixture of peptides and different concentrations of trypsin or chymotrypsin for 4 h into wells. The plates were incubated at 37 °C for 18 to 24 h. An equal volume of 20 µl mixture had no trypsin or chymotrypsin was used as the control. The size of the clear zones surrounding each well as indicators of the enzymatic stability of Polybia-MPI and its analogues.
(§3) Fig. 6 The viability of bacteria/fungi after incubation with peptides in the presence/absence of enzyme. Each peptide was pre-incubated with different concentrations of chymotrypsin (a) or trypsin (b) at 37 °C for 4 h. Then the samples were heat inactivated and poured into wells of plates. The plates were incubated at 37 °C for 18–24 h. Controls were without trypsin or chymotrypsin

trypsin [6] = assay: Radial diffusion assay after trypsin pre-incubation; format: in vitro ADME; conditions: pre-incubation 4 h 37 °C, plates 18–24 h 37 °C, Fig. 6
Description: as §2, §3

[7] = tested on: all tested bacterial and fungal strains; assay: MIC, broth microdilution, summary over the panel; format: cell-based; conditions: summary of Table 1, "almost in the range"
Description: as §1

trypsin [8] = assay: Viability assay: antimicrobial activity against E. coli after trypsin treatment (Fig. 5); format: in vitro ADME; conditions: 37 °C, then E. coli at MIC, OD 600 nm
Description: Viability assay different concentration of trypsin (from 0.0002 to 2 mg/ml) incubated with peptides for 1 or 6 h at 37 °C, and the enzymatic activity was terminated by additional heat inactivation at 60 °C for 20 min. Then the trypsin treated peptides were incubated with Escherichia coli (ATCC25922) at the concentration of MIC in 96-wells microtiter plate overnight at 37 °C (Choi et al. [2013]). The growth inhibitory effect was determined by measuring the absorbance at 600 nm. Then we took 100 μl samples of 6 h from each well with the concentration of 0.2 mg/ml and plated onto MH broth ager after dilution. After overnight incubation at 37 °C, photos of plates were photographed and the colonies on the plate were counted.

| Compound | hemolytic activity under the concentration of 100 μM (human erythrocytes) | hemolytic activity compared to polybia-MPI (human erythrocytes) | MIC [1] | MIC [2] | MIC ((ATCC 700603)) | E. coli colonies on plate after treatment with trypsin-incubated peptide (trypsin [3]) | antimicrobial activity after incubation with chymotrypsin (chymotrypsin [4]; 2 mg/ml chymotrypsin, 6 h) | inhibition zone diameters after incubation with chymotrypsin (chymotrypsin [5]; 2 mg/ml chymotrypsin) | inhibition zone diameters after incubation with trypsin (trypsin [6]; 2 mg/ml trypsin) | MIC values, range over all tested bacterial and fungal strains [7] | antimicrobial activity after incubation with trypsin (trypsin [8]; 2 mg/ml trypsin, 6 h) | chymotrypsin concentration that totally inhibits the antimicrobial activity of the peptide (chymotrypsin [4]; incubation 1 h) | inhibition zone diameters after incubation with chymotrypsin (chymotrypsin [5]; 0.02–2 mg/ml chymotrypsin) | inhibition zone diameters after incubation with trypsin (trypsin [6]; 0.02–2 mg/ml trypsin) | trypsin concentration that totally inhibits the antimicrobial activity of the peptide (trypsin [8]; incubation 1 h) |
| --- | --- | --- | --- | --- | --- | --- | --- | --- | --- | --- | --- | --- | --- | --- | --- |
| CC[C@H](C)[C@H](N)C(=O)N[C@@H](CC(=O)O)C(=O)N[C@@H](Cc1c[nH]c2ccccc12)C(=O)N[C@H](CCCCN)C(=O)N[C@H](CCCCN)C(=O)N[C@@H](CC(C)C)C(=O)N[C@@H](CC(C)C)C(=O)N[C@@H](CC(=O)O)C(=O)N[C@@H](C)C(=O)N[C@@H](C)C(=O)N[C@H](CCCCN)C(=O)N[C@@H](CCC(N)=O)C(=O)N[C@H](C(=O)N[C@@H](CC(C)C)C(N)=O)[C@@H](C)CC [D-lys-MPI] (H-IDW[dK][dK]LLDAA[dK]QIL-NH2) | no significant hemolytic activity | abrogated | 128 µM (≈ 212 µg/mL) | >256 µM | >256 µM |  |  |  |  |  |  |  |  |  |  |
| CC[C@@H](C)[C@@H](N)C(=O)N[C@H](CC(=O)O)C(=O)N[C@H](Cc1c[nH]c2ccccc12)C(=O)N[C@H](CCCCN)C(=O)N[C@H](CCCCN)C(=O)N[C@H](CC(C)C)C(=O)N[C@H](CC(C)C)C(=O)N[C@H](CC(=O)O)C(=O)N[C@H](C)C(=O)N[C@H](C)C(=O)N[C@H](CCCCN)C(=O)N[C@H](CCC(N)=O)C(=O)N[C@@H](C(=O)N[C@H](CC(C)C)C(N)=O)[C@H](C)CC [D-MPI] (H-[dI][dD][dW][dK][dK][dL][dL][dD][dA][dA][dK][dQ][dI][dL]-NH2) | no significant hemolytic activity | decreased | 8 µM (≈ 13.2 µg/mL) | 32 µM (≈ 52.9 µg/mL) | 64 µM (≈ 106 µg/mL) | no colony | retained its antimicrobial activity | almost the same as control | almost the same as control | 8 to 64 µM | retained its antimicrobial activity |  |  |  |  |
| IDWKKLLDAAKQIL-NH2 [Polybia-MPI] | no significant hemolytic activity |  | 8 µM | 32 µM | 64 µM | many colonies |  |  |  |  |  | 0.002 mg/mL | decreased even disappeared | decreased even disappeared | 0.002 mg/mL |

Reference: publication PMC5128008, “Antimicrobial activity and stability of the D-amino acid substituted derivatives of antimicrobial peptide polybia-MPI” (AMB Express, 2016)
